Assay results: ChEMBL document CHEMBL5518172, “Discovery of hydroxamate as a promising scaffold dually inhibiting metallo- and serine-β-lactamases” (Eur J Med Chem, 2024)
pKi: −log10 of the molar value. Activity calls are given as the source filed them. No cut-off for these calls is given here.

Key:
Bacteria [1] = test: Inhibition of recombinant serine beta lactamase KPC-2 (unknown origin) expressed in Escherichia coli BL21 (DE3) cells using meropenem as substrate at 20 uM by spectrometric analysis relative to control
[2] = biological target: Metallo-beta-lactamase type 2 (Bacteria, UniProt C7C422); test: Non-competitive inhibition of recombinant NDM-1 (unknown origin) expressed in Escherichia coli BL21 (DE3) cells using meropenem as substrate assessed as inhibition constant by Lineweaver-Burk plot analysis
[3] = Non-competitive inhibition of recombinant serine beta lactamase KPC-2 (unknown origin) expressed in Escherichia coli BL21 (DE3) cells using meropenem as substrate assessed as inhibition constant by Lineweaver-Burk plot analysis; design: species or system Bacteria
Bacteria [4] = test: Inhibition of recombinant IMP-1 (unknown origin) expressed in Escherichia coli BL21 (DE3) cells assessed as maximal inhibition at 5 uM incubated for 10 hrs
Bacteria [5] = test: Inhibition of recombinant serine beta lactamase KPC-2 (unknown origin) expressed in Escherichia coli BL21 (DE3) cells assessed as maximal inhibition at 5 uM incubated for 2.5 hrs
Bacteria [6] = test: Irreversible inhibition of recombinant serine beta lactamase KPC-2 (unknown origin) expressed in Escherichia coli BL21 (DE3) cells using cefazolin as substrate assessed as reduction in residual activity at 5 uM preincubated for 6 hrs followed by dialysis and measured after 24 hrs
Escherichia coli [7] = test: Synergistic antibacterial activity against Escherichia coli clinical isolate 04 assessed as meropenem MIC at 64 microg/ml measured after 16 hrs by CLSI protocol based broth microdilution method (reference value: 256 microg/ml); format: functional; details: dose 64 µg/ml
Klebsiella pneumoniae = test: Synergistic antibacterial activity against KPC and NDM-1 producing Klebsiella pneumoniae assessed as meropenem MIC at 64 microg/ml incubated for 16 hrs by CLSI protocol based broth microdilution method (reference value: 256 microg/ml); format: functional; details: dose 64 µg/ml
Escherichia coli [8] = test: Synergistic antibacterial activity against Escherichia coli clinical isolate 06 assessed as fold decrease in meropenem MIC at 64 microg/ml measured after 16 hrs by CLSI protocol based broth microdilution method; format: functional; details: dose 64 µg/ml
Escherichia coli [9] = test: Synergistic antibacterial activity against Escherichia coli clinical isolate 08 assessed as fold decrease in meropenem MIC at 64 microg/ml measured after 16 hrs by CLSI protocol based broth microdilution method; format: functional; details: dose 64 µg/ml
Escherichia coli [10] = test: Synergistic antibacterial activity against Escherichia coli clinical isolate 10 assessed as fold decrease in meropenem MIC at 64 microg/ml measured after 16 hrs by CLSI protocol based broth microdilution method; format: functional; details: dose 64 µg/ml
Escherichia coli [11] = test: Synergistic antibacterial activity against Escherichia coli BL21 (DE3) harboring serine beta lactamase OXA-48 assessed as decrease in bacterial colony at 128 microg/ml incubated for 12 hrs in presence of meropenem by imaging analysis; format: functional, organism-based; details: dose 128.0 µg/ml
Escherichia coli [12] = test: Synergistic antibacterial activity against Escherichia coli BL21 (DE3) harboring serine beta lactamase KPC-2 assessed as reduction in meropenem MIC upto 256 microg/ml in presence of meropenem by microdilution checkerboard assay; format: functional, organism-based; details: dose <= 256.0 µg/ml
Escherichia coli [13] = test: Synergistic antibacterial activity against Escherichia coli BL21 (DE3) harboring serine beta lactamase OXA-48 assessed as reduction in meropenem MIC upto 256 microg/ml in presence of meropenem by microdilution checkerboard assay; format: functional, organism-based; details: dose <= 256.0 µg/ml
Escherichia coli [14] = test: Antibacterial activity against Escherichia coli harboring NDM-1 infected in Kunming mouse model assessed as reduction in bacterial load in spleen at 20 mg/kg, ip; format: functional, organism-based

Metallo-beta-lactamase type 2, sequence (C7C422 whole entry): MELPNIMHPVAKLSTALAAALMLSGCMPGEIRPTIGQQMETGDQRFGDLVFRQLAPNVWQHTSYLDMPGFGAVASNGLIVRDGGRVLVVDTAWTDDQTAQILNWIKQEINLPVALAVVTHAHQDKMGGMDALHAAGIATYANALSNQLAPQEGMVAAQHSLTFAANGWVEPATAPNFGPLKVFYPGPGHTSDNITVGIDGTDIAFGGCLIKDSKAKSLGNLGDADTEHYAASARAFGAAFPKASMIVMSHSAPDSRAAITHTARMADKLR

Work on `O=C(CCCc1ccccc1)NOC(=O)OCc1ccccc1` yielded an inhibition (Bacteria [1]) greater than 90%, a pKi [2] of 5.60 and a pKi [3] of 6.26. The inhibition (Bacteria [4]) was “Active”, the inhibition (Bacteria [5]) was “Active” and the inhibition (Bacteria [6]) was “Active”. The MIC (Escherichia coli [7]) was 128 µg/mL, the MIC (Klebsiella pneumoniae) was 256 µg/mL and the “fold change (FC)” value (Escherichia coli [8]) was 2. For the same compound, the “fold change (FC)” value (Escherichia coli [9]) was 2, the “fold change (FC)” value (Escherichia coli [10]) was 2 and the Activity (Escherichia coli [11]) was “Active”. For the same compound, the Activity (Escherichia coli [12]) was “Active”, the Activity (Escherichia coli [13]) was “Active” and the Activity (Escherichia coli [14]) was “inactive”.
